Laboratory results taken from publication PMC10853515, “Identification of potential inhibitor against Leishmania donovani mitochondrial DNA primase through in-silico and in vitro drug repurposing approaches” (Scientific Reports, 2024).

Target: T1, mitochondrial DNA primase (LdmtPRI1) (Leishmania donovani, UniProt A0A3S7WXR7)
T1 construct: gene LdCL_230015100; recombinant histidine-tagged LdmtPRI1 (pET28a), purified from E. coli BL21
T1 sequence (A0A3S7WXR7 1-533): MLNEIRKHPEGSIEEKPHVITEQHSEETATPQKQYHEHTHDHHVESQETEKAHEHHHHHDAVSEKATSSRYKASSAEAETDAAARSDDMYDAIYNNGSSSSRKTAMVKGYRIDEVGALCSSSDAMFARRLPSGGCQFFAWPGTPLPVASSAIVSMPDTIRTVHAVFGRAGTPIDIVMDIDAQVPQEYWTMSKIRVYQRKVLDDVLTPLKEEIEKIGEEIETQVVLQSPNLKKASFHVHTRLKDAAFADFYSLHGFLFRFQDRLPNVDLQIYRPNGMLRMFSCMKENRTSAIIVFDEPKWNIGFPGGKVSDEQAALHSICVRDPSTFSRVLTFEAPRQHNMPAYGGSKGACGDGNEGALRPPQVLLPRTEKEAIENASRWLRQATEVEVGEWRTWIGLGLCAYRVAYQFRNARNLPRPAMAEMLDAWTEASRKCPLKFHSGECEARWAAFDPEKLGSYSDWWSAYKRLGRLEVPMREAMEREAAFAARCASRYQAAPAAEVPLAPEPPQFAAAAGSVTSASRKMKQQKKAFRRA
Experiment: coupled primase-pyrophosphatase malachite green assay, purified enzyme
Format: biochemical

| Compound | IC50 |
| --- | --- |
| CCCCCOC(=O)Nc1nc(=O)n([C@@H]2O[C@H](C)[C@@H](O)[C@H]2O)cc1F [capecitabine] | 15.27 ± 0.03 nM |
| C/C(=C(\CCOP(=O)(O)O)SC(=O)c1ccccc1)N(C=O)Cc1cnc(C)nc1N [benfotiamine] | 20.68 ± 0.03 nM |
